Marks after values point to notes of the source that are not given here.
Legend:
[1] = system: Solid Tumors; test: Clinical study of orally administered pazopanib in patients with solid tumors (clinical response); assay type: in vivo; set-up: key to Response: SD stable disease;; MR mixed response;; PR partial remission
Description: (§1) Sixty-three patients (pts) with cancer were treated with pazopanib three times a week, once (qd) or twice (bid) daily in a dose escalation scheme. The amount and frequency of administration of pazopanib to a representative number of those pts is summarized below in Table 1. Pts were evaluated monthly and treated until disease progression or intolerable side effects. Clinical response was determined every 8 wks. Safety and pharmacodynamics were separately assessed.
(§2) Preliminary representative patient data are shown below in Table 2.

[2] = Peak plasma concentration of pazopanib in the clinical study; assay type: in vivo; details: oral dosing, regardless of tumor type
Description: as §1, §2

[3] = patient with Adeno lung, 200-800 mg qd, oral
[4] = patient with Chondrosarcoma, 400-800 mg qd, oral
[5] = patient with Chondrosarcoma, 2000-800 mg qd, oral
[6] = patient with GIST, 600-800 mg qd, oral
[7] = patient with Hurthle Cell tumor, 50-800 mg qd, oral
[8] = patient with Leiomyosarcoma, 50-800 mg qd, oral
[9] = patient with Melanoma, 50-400 mg qd, oral
[10] = patient with Neuroendocrine tumor, 300 mg bid, oral
[11] = patient with Rectal carcinoid, 800 mg qd, oral
[12] = patient with Renal cell carcinoma, 800 mg qd, oral, patient withdrawn from study
[13] = patient with Renal cell carcinoma, 2000 mg qd, oral
[14] = patient with Renal cell carcinoma, 1400-800 mg qd, oral

SMILES: Cc1ccc(Nc2nccc(N(C)c3ccc4c(C)n(C)nc4c3)n2)cc1S(N)(=O)=O [pazopanib, 5-({4-[(2,3-dimethyl-2H-indazol-6-yl)(methyl)amino]pyrimidin-2-yl}amino)-2-methylbenzenesulfonamide]
- Duration on pazopanib (weeks) [1, 3]: 55 weeks
- Response [1, 3]: SD
- Duration on pazopanib (weeks) [1, 4]: 31 weeks
- Response [1, 4]: SD
- Duration on pazopanib (weeks) [1, 5]: 90+ weeks
- Response [1, 5]: SD (MR)
- Duration on pazopanib (weeks) [1, 6]: 60 weeks
- Response [1, 6]: SD
- Duration on pazopanib (weeks) [1, 7]: 101 weeks
- Response [1, 7]: SD (MR)
- Duration on pazopanib (weeks) [1, 8]: 34 weeks
- Response [1, 8]: SD
- Duration on pazopanib (weeks) [1, 9]: 36 weeks
- Response [1, 9]: SD
- Duration on pazopanib (weeks) [1, 10]: 50+ weeks
- Response [1, 10]: MR
- Duration on pazopanib (weeks) ([1]; patient with Neuroendocrine tumor, 1000 mg qd, oral): 38 weeks
- Response ([1]; patient with Neuroendocrine tumor, 1000 mg qd, oral, preliminary data not yet confirmed): PR^#
- Duration on pazopanib (weeks) [1, 11]: 40+ weeks
- Response [1, 11]: SD
- Response ([1]; patient with Renal cell carcinoma, 300 mg bid, oral (40+ weeks patient)): MR
- Response ([1]; patient with Renal cell carcinoma, 300 mg bid, oral (52+ weeks patient)): PR
- Duration on pazopanib (weeks) ([1]; patient with Renal cell carcinoma, 300 mg bid, oral, response MR): 40+ weeks
- Duration on pazopanib (weeks) ([1]; patient with Renal cell carcinoma, 300 mg bid, oral, response PR): 52+ weeks
- Response ([1]; patient with Renal cell carcinoma, 800 mg qd, oral (12+ weeks patient)): SD
- Duration on pazopanib (weeks) [1, 12]: 19 weeks
- Response [1, 12]: SD (MR)*
- Duration on pazopanib (weeks) ([1]; patient with Renal cell carcinoma, 800 mg qd, oral, response SD): 12+ weeks
- Duration on pazopanib (weeks) [1, 13]: 24 weeks
- Response [1, 13]: SD (MR)
- Duration on pazopanib (weeks) [1, 14]: 40 weeks
- Response [1, 14]: SD (MR)
- peak plasma concentrations of pazopanib in patients that demonstrated a clinical benefit [2]: ≥ 40 µM

Source: patent publication US20090005406A1, “Cancer Treatment Method” (SMITHKLINE BEECHAM CORPORATION, priority 2005, published 2009)
